Where “and” joins values, the source holds several entries; their conditions need not be identical. Equal values may be shown once.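 Assay format: 96-well plates, 48-hour exposure. GI50 marks 50% less growth. TGI is the concentration that stops growth completely.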
How the values were obtained:
Experiment in all cases: NCI tumour cell line growth inhibition, 48 h
[1] = test system: 786-0 renal
[2] = test system: A498 renal
[3] = test system: A549 NSCLC
[4] = test system: ACHN renal
[5] = test system: CAKI-1 renal
[6] = test system: COLO 205 colon
[7] = test system: DLD-1 colon
[8] = test system: DMS 114 small cell lung
[9] = test system: DMS 273 small cell lung
[10] = test system: EKVX NSCLC
[11] = test system: HCC-2998 colon
[12] = test system: HCT-116 colon
[13] = test system: HCT-15 colon
[14] = test system: HL-60(TB) leukemia
[15] = test system: HOP-18 NSCLC
[16] = test system: HOP-62 NSCLC
[17] = test system: HOP-92 NSCLC
[18] = test system: HT29 colon
[19] = test system: IGROV1 ovarian
[20] = test system: K-562 leukemia
[21] = test system: KM12 colon
[22] = test system: KM20L2 colon
[23] = test system: LOX IMVI melanoma
[24] = test system: LXFL 529 NSCLC
[25] = test system: M14 melanoma
[26] = test system: M19-MEL melanoma
[27] = test system: MALME-3M melanoma
[28] = test system: MOLT-4 leukemia
[29] = test system: NCI-H226 lung
[30] = test system: NCI-H23 lung
[31] = test system: NCI-H460 lung
[32] = test system: NCI-H522 lung
[33] = test system: OVCAR-3 ovarian
[34] = test system: OVCAR-4 ovarian
[35] = test system: OVCAR-5 ovarian
[36] = test system: OVCAR-8 ovarian
[37] = test system: RXF 393 renal
[38] = test system: RXF-631 renal
[39] = test system: SF-268 CNS
[40] = test system: SF-295 CNS
[41] = test system: SF-539 CNS
[42] = test system: SK-MEL-28 melanoma
[43] = test system: SK-MEL-5 melanoma
[44] = test system: SK-OV-3 ovarian
[45] = test system: SN12C renal
[46] = test system: SNB-19 CNS
[47] = test system: SNB-75 CNS
[48] = test system: SNB-78 CNS
[49] = test system: SR leukemia
[50] = test system: SW-620 colon
[51] = test system: TK-10 renal
[52] = test system: U251 CNS
[53] = test system: UACC-257 melanoma
[54] = test system: UACC-62 melanoma
[55] = test system: UO-31 renal
[56] = test system: XF 498 CNS
[57] = test system: HS 578T breast
[58] = test system: MDA-MB-231 breast
[59] = test system: MDA-MB-435
[60] = test system: MDA-N
[61] = test system: P388 leukemia
[62] = test system: SK-MEL-2 melanoma
[63] = test system: SN12K1 renal
[64] = test system: CCRF-CEM leukemia
[65] = test system: MCF7 breast
[66] = test system: NCI/ADR-RES ovarian
[67] = test system: RPMI-8226 leukemia

Cc1cc(NS(=O)(=O)c2ccc(NC(=O)c3ccc(Cl)c4c(Nc5ccc(S(N)(=O)=O)cc5)c5ccccc5nc34)cc2)no1
TGI [1]: 34.8 µM | TGI [2]: 49.9 µM | TGI [3]: > 100 µM | TGI [4]: 73.8 µM | TGI [5]: 40.5 µM | TGI [6]: 34.3 µM | TGI [7]: 52.4 µM | TGI [8]: 39.7 µM | TGI [9]: 47.4 µM | TGI [10]: 89.1 µM | TGI [11]: 33.2 µM | TGI [12]: 30.8 µM | TGI [13]: > 100 µM | TGI [14]: 65.6 µM | TGI [15]: 83 µM | TGI [16]: 41.1 µM | TGI [17]: 39.2 µM | TGI [18]: 44.7 µM | TGI [19]: 44.2 µM | TGI [20]: > 100 µM | TGI [21]: 37.8 µM | TGI [22]: 56.6 µM | TGI [23]: 29.7 µM | TGI [24]: 31.4 µM | TGI [25]: 65.7 µM | TGI [26]: 38.4 µM | TGI [27]: 29.3 µM | TGI [28]: 56.6 µM | TGI [29]: 46 µM | TGI [30]: 49.3 µM | TGI [31]: 83.1 µM | TGI [32]: 23.7 µM | TGI [33]: 37.7 µM | TGI [34]: 47 µM | TGI [35]: 56.7 µM | TGI [36]: 36.6 µM | TGI [37]: 31.3 µM | TGI [38]: 50.2 µM | TGI [39]: 40.8 µM | TGI [40]: 70 µM | TGI [41]: 39.2 µM | TGI [42]: 42.3 µM | TGI [43]: 33.9 µM | TGI [44]: 59.2 µM | TGI [45]: 58.6 µM | TGI [46]: 30.2 µM | TGI [47]: 42.6 µM | TGI [48]: > 100 µM | TGI [49]: 56.9 µM | TGI [50]: 38.9 µM | TGI [51]: 86.2 µM | TGI [52]: 27 µM | TGI [53]: 50.9 µM | TGI [54]: 25.2 µM | TGI [55]: 69.8 µM | TGI [56]: 36 µM

CO[C@H]1C[C@@H]2CC[C@@H](C)[C@@](O)(O2)C(=O)C(=O)N2CCCC[C@H]2C(=O)O[C@H]([C@H](C)C[C@@H]2CC[C@@H](O)[C@H](OC)C2)CC(=O)[C@H](C)C=C(C)[C@@H](O)[C@@H](OC)C(=O)[C@H](C)C[C@H](C)/C=C/C=C/C=C1C
TGI [7]: 25.2 µM | TGI [8]: 31.5 µM | TGI [9]: 33.7 µM | TGI [11]: 13.8 µM and 26.6 µM and 47.9 µM | TGI [14]: 24.2 µM and 144 µM | TGI [15]: 133 µM | TGI [57]: 13.7 µM and 86.4 µM | TGI [20]: 40.5 µM and 365 µM | TGI [22]: 41.5 µM | TGI [25]: 27.2 µM and 144 µM | TGI [58]: 26.3 µM and 170 µM | TGI [59]: 25.9 µM and 126 µM | GI50 [60]: 79.1 µM | TGI [34]: 6.85 µM and 27 µM | TGI [36]: 27.7 µM and 62 µM and 243 µM | TGI [61]: 27.8 µM | TGI [41]: 14.6 µM and 22.4 µM and 82.9 µM | TGI [62]: 17.6 µM and 34.9 µM and 67.2 µM | TGI [63]: 20.9 µM | TGI [48]: 16.9 µM

O=c1cc(O)ccn1C1C=C(CO)C(O)C1O (centres undefined)
TGI [3]: > 625 µM | TGI [5]: > 625 µM | TGI [64]: > 625 µM | TGI [7]: > 625 µM | TGI [8]: > 625 µM | TGI [9]: > 625 µM | TGI [11]: > 625 µM | TGI [12]: > 625 µM | TGI [13]: > 625 µM | TGI [14]: > 625 µM | TGI [15]: > 625 µM | TGI [16]: > 625 µM | TGI [17]: > 625 µM | TGI [18]: > 625 µM | TGI [19]: > 625 µM | TGI [21]: > 625 µM | TGI [22]: > 625 µM | TGI [23]: > 625 µM | TGI [27]: > 625 µM | TGI [65]: > 625 µM | TGI [29]: > 625 µM | TGI [31]: > 625 µM | TGI [66]: > 625 µM | TGI [33]: > 625 µM | TGI [34]: > 625 µM | TGI [36]: > 625 µM | TGI [67]: > 625 µM | TGI [37]: > 625 µM | TGI [39]: > 625 µM | TGI [40]: > 625 µM | TGI [41]: > 625 µM | TGI [62]: > 625 µM | TGI [42]: > 625 µM | TGI [43]: > 625 µM | TGI [44]: > 625 µM | TGI [45]: > 625 µM | TGI [63]: > 625 µM | TGI [46]: > 625 µM | TGI [47]: > 625 µM | TGI [48]: > 625 µM | TGI [50]: > 625 µM | TGI [52]: > 625 µM | TGI [54]: > 625 µM | TGI [55]: > 625 µM | TGI [56]: < 0.0625 µM

O=C(O)CCC(=O)N1C/C(=C\c2ccccc2)C(=O)/C(=C/c2ccccc2)C1
TGI [1]: 5.75 µM | TGI [2]: 27.3 µM | TGI [3]: 34.5 µM | TGI [4]: 4 µM | TGI [5]: 14.9 µM | TGI [64]: 9.93 µM | TGI [6]: 11.3 µM | TGI [7]: 5.06 µM | TGI [8]: 4.73 µM | TGI [9]: 4.97 µM | TGI [10]: 15.9 µM | TGI [11]: 4.53 µM | TGI [12]: 3.16 µM | TGI [13]: 4.8 µM | TGI [14]: 4.59 µM | TGI [15]: 16.1 µM | TGI [16]: 31.3 µM | TGI [17]: 30.8 µM | TGI [18]: 4.65 µM | TGI [19]: 12.7 µM | TGI [20]: > 24.6 µM | TGI [21]: 3.34 µM | TGI [22]: 9.89 µM | TGI [23]: 3.36 µM | TGI [24]: 7.17 µM | TGI [25]: 5.39 µM | TGI [26]: 3.47 µM | TGI [27]: 5.52 µM | TGI [28]: 8.22 µM | TGI [29]: 34.3 µM | TGI [30]: 12.7 µM | TGI [31]: 25.2 µM | TGI [32]: 3.38 µM | TGI [33]: 5.93 µM | TGI [34]: 4.86 µM | TGI [35]: 28.3 µM | TGI [36]: 8.24 µM | TGI [67]: 19.9 µM | TGI [37]: 12.7 µM | TGI [38]: 11.2 µM | TGI [39]: 5.5 µM | TGI [40]: 6.03 µM | TGI [41]: 3.85 µM | TGI [62]: 4 µM | TGI [42]: 3.55 µM | TGI [43]: 6.9 µM | TGI [44]: 25.3 µM | TGI [45]: 3.52 µM | TGI [46]: 13.8 µM | TGI [47]: 19.1 µM | TGI [48]: 31.4 µM | TGI [49]: 3.96 µM | TGI [50]: 3.77 µM | TGI [51]: 21.2 µM | TGI [52]: 3.29 µM | TGI [53]: 6.53 µM | TGI [54]: 2.63 µM | TGI [55]: 33 µM | TGI [56]: 6.56 µM

O=C1CCC[C@]2(CCCC(=O)N2)C1
TGI [1]: > 100 µM | TGI [2]: > 100 µM | TGI [3]: > 100 µM | TGI [4]: > 100 µM | TGI [5]: > 100 µM | TGI [64]: > 100 µM | TGI [6]: > 100 µM | TGI [7]: > 100 µM | TGI [8]: > 100 µM | TGI [9]: > 100 µM | TGI [10]: > 100 µM | TGI [11]: > 100 µM | TGI [12]: > 100 µM | TGI [13]: > 100 µM | TGI [14]: > 100 µM | TGI [15]: > 100 µM | TGI [16]: > 100 µM | TGI [17]: > 100 µM | TGI [18]: > 100 µM | TGI [19]: > 100 µM | TGI [20]: > 100 µM | TGI [21]: > 100 µM | TGI [22]: > 100 µM | TGI [23]: > 100 µM | TGI [24]: > 100 µM | TGI [25]: > 100 µM | TGI [26]: > 100 µM | TGI [27]: > 100 µM | TGI [28]: > 100 µM | TGI [29]: > 100 µM | TGI [30]: > 100 µM | TGI [31]: > 100 µM | TGI [32]: > 100 µM | TGI [33]: > 100 µM | TGI [34]: > 100 µM | TGI [35]: > 100 µM | TGI [36]: > 100 µM | TGI [67]: > 100 µM | TGI [37]: > 100 µM | TGI [38]: > 100 µM | TGI [39]: > 100 µM | TGI [40]: > 100 µM | TGI [41]: > 100 µM | TGI [62]: > 100 µM | TGI [42]: > 100 µM | TGI [43]: > 100 µM | TGI [44]: > 100 µM | TGI [45]: > 100 µM | TGI [46]: > 100 µM | TGI [47]: > 100 µM | TGI [48]: > 100 µM | TGI [49]: > 100 µM | TGI [50]: > 100 µM | TGI [51]: > 100 µM | TGI [52]: > 100 µM | TGI [53]: > 100 µM | TGI [54]: > 100 µM | TGI [55]: > 100 µM | TGI [56]: > 100 µM
